Numbers after ± are expanded uncertainties.
Legend:
[1] = xn = mol fraction of the nth substance listed; details: 200 kPa, Liquid
[2] = 200 kPa, Liquid

SMILES: O [water] + NCCN
- mass density ([1]; 283.4 K, x1 = 1): 999.862 ± 0.12 kg/m3
- mass density ([1]; 293.28 K, x1 = 1): 998.365 ± 0.12 kg/m3
- mass density ([1]; 302.62 K, x1 = 1): 995.966 ± 0.12 kg/m3
- mass density ([1]; 312.13 K, x1 = 1): 992.723 ± 0.12 kg/m3
- mass density ([1]; 322.73 K, x1 = 1): 988.284 ± 0.12 kg/m3
- mass density ([1]; 332.94 K, x1 = 1): 983.292 ± 0.12 kg/m3
- mass density ([1]; 342.53 K, x1 = 1): 978.02 ± 0.12 kg/m3
- mass density ([1]; 352.19 K, x1 = 1): 972.189 ± 0.13 kg/m3

SMILES: NCCN [ethane-1,2-diamine]
- mass density ([2]; 283.55 K): 905.993 ± 0.17 kg/m3
- mass density ([2]; 293.06 K): 897.168 ± 0.17 kg/m3
- mass density ([2]; 302.4 K): 888.38 ± 0.17 kg/m3
- mass density ([2]; 312.67 K): 878.632 ± 0.18 kg/m3
- mass density ([2]; 323.15 K): 868.618 ± 0.19 kg/m3
- mass density ([2]; 332.78 K): 859.342 ± 0.19 kg/m3
- mass density ([2]; 342.77 K): 849.651 ± 0.2 kg/m3
- mass density ([2]; 352.69 K): 839.921 ± 0.2 kg/m3

SMILES: NCCN [ethane-1,2-diamine] + O
- mass density ([1]; 282.78 K, x2 = 0.3967): 956.193 ± 0.15 kg/m3
- mass density ([1]; 282.92 K, x2 = 0.2017): 929.116 ± 0.15 kg/m3
- mass density ([1]; 282.96 K, x2 = 0.301): 942.071 ± 0.15 kg/m3
- mass density ([1]; 283.11 K, x2 = 0.8936): 1000.8 ± 0.12 kg/m3
- mass density ([1]; 283.13 K, x2 = 0.1028): 917.186 ± 0.16 kg/m3
- mass density ([1]; 283.26 K, x2 = 0.5026): 973.123 ± 0.15 kg/m3
- mass density ([1]; 283.47 K, x2 = 0.7687): 1005.97 ± 0.12 kg/m3
- mass density ([1]; 283.55 K, x2 = 0): 905.993 ± 0.17 kg/m3
- mass density ([1]; 283.69 K, x2 = 0.6032): 989.21 ± 0.14 kg/m3
- mass density ([1]; 284.35 K, x2 = 0.7026): 1001.48 ± 0.12 kg/m3
- mass density ([1]; 292.62 K, x2 = 0.8936): 996.472 ± 0.12 kg/m3
- mass density ([1]; 292.67 K, x2 = 0.5026): 964.635 ± 0.16 kg/m3
- mass density ([1]; 292.85 K, x2 = 0.7026): 994.548 ± 0.12 kg/m3
- mass density ([1]; 292.93 K, x2 = 0.2017): 919.983 ± 0.16 kg/m3
- mass density ([1]; 292.93 K, x2 = 0.301): 933.047 ± 0.15 kg/m3
- mass density ([1]; 293.05 K, x2 = 0.1028): 908.064 ± 0.16 kg/m3
- mass density ([1]; 293.06 K, x2 = 0): 897.168 ± 0.17 kg/m3
- mass density ([1]; 293.09 K, x2 = 0.3967): 946.948 ± 0.15 kg/m3
- mass density ([1]; 293.24 K, x2 = 0.7687): 998.968 ± 0.12 kg/m3
- mass density ([1]; 293.29 K, x2 = 0.6032): 980.744 ± 0.14 kg/m3
- mass density ([1]; 301.58 K, x2 = 0.7026): 987.238 ± 0.13 kg/m3
- mass density ([1]; 302.39 K, x2 = 0.6032): 972.594 ± 0.14 kg/m3
- mass density ([1]; 302.4 K, x2 = 0): 888.38 ± 0.17 kg/m3
- mass density ([1]; 302.47 K, x2 = 0.7687): 992.107 ± 0.12 kg/m3
- mass density ([1]; 302.85 K, x2 = 0.3967): 938.019 ± 0.16 kg/m3
- mass density ([1]; 302.85 K, x2 = 0.5026): 955.328 ± 0.16 kg/m3
- mass density ([1]; 302.96 K, x2 = 0.301): 923.821 ± 0.16 kg/m3
- mass density ([1]; 302.97 K, x2 = 0.8936): 991.261 ± 0.12 kg/m3
- mass density ([1]; 302.99 K, x2 = 0.1028): 898.81 ± 0.17 kg/m3
- mass density ([1]; 303.1 K, x2 = 0.2017): 910.588 ± 0.16 kg/m3
- mass density ([1]; 311.86 K, x2 = 0.7026): 978.33 ± 0.13 kg/m3
- mass density ([1]; 312.55 K, x2 = 0.6032): 963.3 ± 0.15 kg/m3
- mass density ([1]; 312.59 K, x2 = 0.7687): 984.36 ± 0.12 kg/m3
- mass density ([1]; 312.67 K, x2 = 0): 878.632 ± 0.18 kg/m3
- mass density ([1]; 312.77 K, x2 = 0.5026): 946.166 ± 0.16 kg/m3
- mass density ([1]; 313 K, x2 = 0.301): 914.5 ± 0.17 kg/m3
- mass density ([1]; 313.02 K, x2 = 0.8936): 985.719 ± 0.12 kg/m3
- mass density ([1]; 313.11 K, x2 = 0.1028): 889.308 ± 0.17 kg/m3
- mass density ([1]; 313.14 K, x2 = 0.2017): 901.221 ± 0.17 kg/m3
- mass density ([1]; 313.98 K, x2 = 0.3967): 927.719 ± 0.16 kg/m3
- mass density ([1]; 322.34 K, x2 = 0.7687): 976.647 ± 0.13 kg/m3
- mass density ([1]; 322.65 K, x2 = 0.6032): 953.972 ± 0.15 kg/m3
- mass density ([1]; 322.72 K, x2 = 0.7026): 968.66 ± 0.14 kg/m3
- mass density ([1]; 322.86 K, x2 = 0.301): 905.205 ± 0.17 kg/m3
- mass density ([1]; 322.88 K, x2 = 0.5026): 936.708 ± 0.17 kg/m3
- mass density ([1]; 322.93 K, x2 = 0.2017): 891.98 ± 0.17 kg/m3
- mass density ([1]; 323.04 K, x2 = 0.1028): 879.883 ± 0.18 kg/m3
- mass density ([1]; 323.15 K, x2 = 0): 868.618 ± 0.19 kg/m3
- mass density ([1]; 323.15 K, x2 = 0.8936): 979.69 ± 0.12 kg/m3
- mass density ([1]; 323.75 K, x2 = 0.3967): 918.543 ± 0.17 kg/m3
- mass density ([1]; 332.41 K, x2 = 0.7026): 960.004 ± 0.14 kg/m3
- mass density ([1]; 332.77 K, x2 = 0.7687): 968.171 ± 0.13 kg/m3
- mass density ([1]; 332.78 K, x2 = 0): 859.342 ± 0.19 kg/m3
- mass density ([1]; 332.89 K, x2 = 0.5026): 927.173 ± 0.17 kg/m3
- mass density ([1]; 332.96 K, x2 = 0.301): 895.557 ± 0.17 kg/m3
- mass density ([1]; 333.02 K, x2 = 0.6032): 944.229 ± 0.16 kg/m3
- mass density ([1]; 333.1 K, x2 = 0.1028): 870.208 ± 0.19 kg/m3
- mass density ([1]; 333.11 K, x2 = 0.2017): 882.167 ± 0.18 kg/m3
- mass density ([1]; 333.38 K, x2 = 0.8936): 973.322 ± 0.13 kg/m3
- mass density ([1]; 333.53 K, x2 = 0.3967): 909.227 ± 0.17 kg/m3
- mass density ([1]; 342.6 K, x2 = 0.7687): 959.937 ± 0.14 kg/m3
- mass density ([1]; 342.64 K, x2 = 0.5026): 917.789 ± 0.18 kg/m3
- mass density ([1]; 342.77 K, x2 = 0): 849.651 ± 0.2 kg/m3
- mass density ([1]; 342.81 K, x2 = 0.3967): 900.276 ± 0.18 kg/m3
- mass density ([1]; 342.98 K, x2 = 0.301): 885.862 ± 0.18 kg/m3
- mass density ([1]; 343.04 K, x2 = 0.1028): 860.531 ± 0.19 kg/m3
- mass density ([1]; 343.08 K, x2 = 0.7026): 950.214 ± 0.15 kg/m3
- mass density ([1]; 343.09 K, x2 = 0.8936): 966.519 ± 0.13 kg/m3
- mass density ([1]; 343.13 K, x2 = 0.2017): 872.529 ± 0.19 kg/m3
- mass density ([1]; 352.14 K, x2 = 0.7687): 951.742 ± 0.14 kg/m3
- mass density ([1]; 352.69 K, x2 = 0): 839.921 ± 0.2 kg/m3
- mass density ([1]; 352.71 K, x2 = 0.5026): 907.894 ± 0.18 kg/m3
- mass density ([1]; 352.83 K, x2 = 0.301): 876.2 ± 0.19 kg/m3
- mass density ([1]; 352.9 K, x2 = 0.8936): 959.494 ± 0.13 kg/m3
- mass density ([1]; 353.02 K, x2 = 0.1028): 850.773 ± 0.2 kg/m3
- mass density ([1]; 353.03 K, x2 = 0.2017): 862.815 ± 0.19 kg/m3
- mass density ([1]; 353.34 K, x2 = 0.3967): 889.949 ± 0.18 kg/m3
- mass density ([1]; 353.48 K, x2 = 0.7026): 940.524 ± 0.15 kg/m3

— the NIST ThermoML archive (doi:10.1021/je8001199)
